Here are results for one compound from US20090162413A1 (priority 1998, published 2009).

The subject of the test is human coronary artery endothelial cells (hCaEC). Put plainly: 3H-thymidine uptake proliferation assay, hCaEC. In kind it is cell-based. As to conditions: Homo sapiens, Endothelial cell; read-out: hCaEC IC50 Mean ± SEM. On the procedure: Experiments were performed to investigate interactions between zotarolimus (ABT-578) and paclitaxel when administered in combination. The effects of paclitaxel and zotarolimus on the anti-proliferative activity of human coronary artery smooth muscle ([…]) and endothelial […] determined using an in vitro proliferation assay. The proliferation and migration of vascular smooth muscle cells into the vascular neointima is a characteristic pathologic response seen in restenotic lesions (Lafont and Libby, 1998). As a result, in vitro assays which specifically measure the anti-proliferative activity of candidate anti-restenotic compounds on human coronary artery smooth muscle and endothelial cells predict potential anti-restenotic activity in vivo. To determine if paclitaxel attenuated or augmented the activity of zotarolimus the effect of paclitaxel and zotarolimus alone and in combination on growth-factor induced proliferation was determined. Data were analyzed for additivity using an isobologram approach and a combination index analysis. An isobologram is a Cartesian plot of pairs of doses that, in combination, yield a specified level of effect. It is a convenient way of graphically displaying results of drug-combination and similar studies, because paired values of experimental points that fall below or above the line connecting the axial points indicate synergistic and non-synergistic interactions, respectively. Cell proliferation was monitored by following incorporation of ^3H-thymidine into newly synthesized DNA of cells stimulated by serum and growth factors. Exponentially growing […] were seeded into 96-well flat bottom tissue culture plates at 5,000 cells/well (10,000 cells/well for […]). The cells were allowed to attach overnight. […] PerkinElmer; Wellesley; MA) was added to each filter well and the plates were counted using a TopCount microplate scintillation counter (PerkinElmer). […] The concentration eliciting a specific anti-proliferative effect was determined using a four-parameter equation (equation 1): […]

On to `CO[C@H]1C[C@@H]2CC[C@@H](C)[C@@](O)(O2)C(=O)C(=O)N2CCCC[C@H]2C(=O)O[C@H]([C@H](C)C[C@@H]2CC[C@H](n3cnnn3)[C@H](OC)C2)CC(=O)[C@H](C)/C=C(\C)[C@@H](O)[C@@H](OC)C(=O)[C@H](C)C[C@H](C)/C=C/C=C/C=C/1C` [zotarolimus], for which the IC50 turned out to be 3.6 ± 0.2 nM.
